According to patent US10376520B2, “Methods for the treatment of cardiovascular disorders” (Galapagos NV, priority 2015, dated 2019):

Tested on: RA patients
Experiment: Total cholesterol determination, Study 1 (RA patients with inadequate response to methotrexate, add-on to MTX)
Assay type: in vivo, human
Conditions: for [total cholesterol] Mean CFB / [Total cholesterol] Median CFB: Study 1 24 weeks results; for [total cholesterol] Mean percentage CFB - 24 weeks results: continued 25 mg b.i.d (N = 69)
Protocol: Double-blind, placebo-controlled add on study in subjects with moderately to severely active RA who have an inadequate response to methotrexate (MTX) (oral or parenteral).
595 subjects randomized to one of 6 dose regimens of Compound 1 (dosed as a [Compound 1:HCl:3H2O]) (3 dose levels administered either once or twice daily) or placebo on top of each subject's stable dose of MTX.
Compound 1 (dosed as a [Compound 1:HCl:3H2O]) is dosed for twelve weeks once daily (q.d.) (50 mg, 100 mg or 200 mg) or twice daily (b.i.d.) (25 mg, 50 mg or 100 mg); or placebo.
At Week 12, the subjects on placebo who have not achieved 20% improvement in swollen joint count (SJC66) and tender joint count (TJC68) are re-randomized automatically to receive Compound 1 (dosed as a [Compound 1:HCl:3H2O]) either at 100 mg q.d. or 50 mg b.i.d. doses in a blinded fashion; subjects on 50 mg q.d. who have not achieved 20% improvement in SJC66 and TJC68 will be assigned to 100 mg q.d. and subjects on 25 mg b.i.d. that have not achieved a 20% improvement in SJC66 and TJC68 will be assigned to 50 mg b.i.d. Subjects who switch treatment at week 12 are handled as if they discontinued at week 12 for the purpose of statistical analysis, whereas subjects in the other groups will maintain their randomized treatment until Week 24.
This method is based on the determination of Δ^4 cholestenone after enzymatic cleavage of the cholesterol ester by cholesterol esterase, conversion of cholesterol by cholesterol oxidase, and subsequent measurement by the Trinder reaction of the hydrogen peroxide formed (Allain et al., 1974).
Cholesterol esters are cleaved by the action of cholesterol esterase to yield free cholesterol and fatty acids. Cholesterol oxidase then catalyzes the oxidation of cholesterol to cholest-4-en-3-one and hydrogen peroxide. In the presence of peroxidase, the hydrogen peroxide formed effects the oxidative coupling of phenol and 4-aminophenazone to form a red quinone-imine dye. The color intensity of the dye formed is directly proportional to the cholesterol concentration. It is determined by measuring the increase in absorbance.
Human serum and plasma samples cholesterol determination was done on a Roche/Hitachi Cobas c 701/702 system which automatically calculate the analyte concentration of each sample.

[1] = placebo switched to 50 mg b.i.d at week 12, week 16
[2] = placebo switched to 50 mg b.i.d at week 12, week 20
[3] = placebo switched to 50 mg b.i.d at week 12, week 24

**Q.** Which “[total cholesterol] Mean CFB” value (continued 100 mg b.i.d., week 2) does the source give for `O=C(Nc1nc2cccc(-c3ccc(CN4CCS(=O)(=O)CC4)cc3)n2n1)C1CC1` [Compound 1, cyclopropanecarboxylic acid {5-[4-(1,1-dioxo-thiomorpholin-4-ylmethyl)-phenyl]-[1,2,4]triazolo[1,5-a]pyridin-2yl}-amide] here?
**A.** 0.36 mmol/L

**Q.** What about the “[total cholesterol] Mean CFB” value (continued 100 mg b.i.d., week 4) of the same molecule?
**A.** 0.43 mmol/L

**Q.** And the “[total cholesterol] Mean CFB” value (continued 100 mg b.i.d., week 8)?
**A.** 0.64 mmol/L

**Q.** And the “[total cholesterol] Mean CFB” value (continued 100 mg b.i.d., week 12)?
**A.** 0.64 mmol/L

**Q.** What about the “[total cholesterol] Mean CFB” value (continued 100 mg b.i.d., week 16) of the same molecule?
**A.** 0.56 mmol/L

**Q.** What about the “[total cholesterol] Mean CFB” value (continued 100 mg b.i.d., week 20) of the same molecule?
**A.** 0.54 mmol/L

**Q.** And the “[total cholesterol] Mean CFB” value (continued 100 mg b.i.d., week 24)?
**A.** 0.66 mmol/L

**Q.** What about the “[Total cholesterol] Median CFB” value (continued 100 mg q.d., week 1) of the same molecule?
**A.** 0.14 mmol/L

**Q.** And the “[total cholesterol] Mean CFB” value (continued 100 mg q.d., week 1)?
**A.** 0.15 mmol/L

**Q.** And the “[Total cholesterol] Median CFB” value (continued 100 mg q.d., week 2)?
**A.** 0.06 mmol/L

**Q.** What about the “[total cholesterol] Mean CFB” value (continued 100 mg q.d., week 2) of the same molecule?
**A.** 0.10 mmol/L

**Q.** What about the “[Total cholesterol] Median CFB” value (continued 100 mg q.d., week 4) of the same molecule?
**A.** 0.25 mmol/L

**Q.** And the “[total cholesterol] Mean CFB” value (continued 100 mg q.d., week 4)?
**A.** 0.23 mmol/L

**Q.** And the “[Total cholesterol] Median CFB” value (continued 100 mg q.d., week 8)?
**A.** 0.09 mmol/L

**Q.** And the “[total cholesterol] Mean CFB” value (continued 100 mg q.d., week 8)?
**A.** 0.14 mmol/L

**Q.** And the “[Total cholesterol] Median CFB” value (continued 100 mg q.d., week 12)?
**A.** 0.30 mmol/L

**Q.** What about the “[total cholesterol] Mean CFB” value (continued 100 mg q.d., week 12) of the same molecule?
**A.** 0.23 mmol/L

**Q.** And the “[Total cholesterol] Median CFB” value (continued 100 mg q.d., week 16)?
**A.** 0.00 mmol/L

**Q.** And the “[total cholesterol] Mean CFB” value (continued 100 mg q.d., week 16)?
**A.** 0.06 mmol/L

**Q.** What about the “[Total cholesterol] Median CFB” value (continued 100 mg q.d., week 20) of the same molecule?
**A.** 0.17 mmol/L

**Q.** What about the “[total cholesterol] Mean CFB” value (continued 100 mg q.d., week 20) of the same molecule?
**A.** 0.13 mmol/L

**Q.** What about the “[Total cholesterol] Median CFB” value (continued 100 mg q.d., week 24) of the same molecule?
**A.** 0.30 mmol/L

**Q.** What about the “[total cholesterol] Mean CFB” value (continued 100 mg q.d., week 24) of the same molecule?
**A.** 0.21 mmol/L

**Q.** What about the “[total cholesterol] Mean CFB” value (continued 200 mg q.d., week 1) of the same molecule?
**A.** 0.26 mmol/L

**Q.** What about the “[total cholesterol] Mean CFB” value (continued 200 mg q.d., week 2) of the same molecule?
**A.** 0.29 mmol/L

**Q.** And the “[total cholesterol] Mean CFB” value (continued 200 mg q.d., week 4)?
**A.** 0.37 mmol/L

**Q.** What about the “[total cholesterol] Mean CFB” value (continued 200 mg q.d., week 8) of the same molecule?
**A.** 0.44 mmol/L

**Q.** What about the “[total cholesterol] Mean CFB” value (continued 200 mg q.d., week 12) of the same molecule?
**A.** 0.46 mmol/L

**Q.** What about the “[total cholesterol] Mean CFB” value (continued 200 mg q.d., week 16) of the same molecule?
**A.** 0.37 mmol/L

**Q.** And the “[total cholesterol] Mean CFB” value (continued 200 mg q.d., week 20)?
**A.** 0.43 mmol/L

**Q.** What about the “[Total cholesterol] Median CFB” value (continued 200 mg q.d., week 24) of the same molecule?
**A.** 0.37 mmol/L

**Q.** And the “[total cholesterol] Mean CFB” value (continued 200 mg q.d., week 24)?
**A.** 0.39 mmol/L

**Q.** What about the “[total cholesterol] Mean CFB” value (increased from 25 mg b.i.d. to 50 mg b.i.d at 12 weeks, week 1) of the same molecule?
**A.** -0.05 mmol/L

**Q.** And the “[total cholesterol] Mean CFB” value (increased from 25 mg b.i.d. to 50 mg b.i.d at 12 weeks, week 2)?
**A.** -0.01 mmol/L

**Q.** And the “[total cholesterol] Mean CFB” value (increased from 25 mg b.i.d. to 50 mg b.i.d at 12 weeks, week 4)?
**A.** -0.26 mmol/L

**Q.** What about the “[total cholesterol] Mean CFB” value (increased from 25 mg b.i.d. to 50 mg b.i.d at 12 weeks, week 8) of the same molecule?
**A.** -0.30 mmol/L

**Q.** And the “[total cholesterol] Mean CFB” value (increased from 25 mg b.i.d. to 50 mg b.i.d at 12 weeks, week 12)?
**A.** -0.13 mmol/L

**Q.** What about the “[total cholesterol] Mean CFB” value (increased from 25 mg b.i.d. to 50 mg b.i.d at 12 weeks, week 16) of the same molecule?
**A.** 0.08 mmol/L

**Q.** What about the “[total cholesterol] Mean CFB” value (increased from 25 mg b.i.d. to 50 mg b.i.d at 12 weeks, week 20) of the same molecule?
**A.** -0.44 mmol/L

**Q.** And the “[total cholesterol] Mean CFB” value (increased from 25 mg b.i.d. to 50 mg b.i.d at 12 weeks, week 24)?
**A.** -0.09 mmol/L

**Q.** What about the “[total cholesterol] Mean CFB” value (increased from 50 mg q.d. to 100 mg q.d. at 12 weeks, week 1) of the same molecule?
**A.** 0.05 mmol/L

**Q.** And the “[total cholesterol] Mean CFB” value (increased from 50 mg q.d. to 100 mg q.d. at 12 weeks, week 2)?
**A.** 0.26 mmol/L

**Q.** What about the “[total cholesterol] Mean CFB” value (increased from 50 mg q.d. to 100 mg q.d. at 12 weeks, week 4) of the same molecule?
**A.** 0.11 mmol/L

**Q.** And the “[total cholesterol] Mean CFB” value (increased from 50 mg q.d. to 100 mg q.d. at 12 weeks, week 8)?
**A.** 0.10 mmol/L

**Q.** What about the “[total cholesterol] Mean CFB” value (increased from 50 mg q.d. to 100 mg q.d. at 12 weeks, week 12) of the same molecule?
**A.** 0.10 mmol/L

**Q.** And the “[total cholesterol] Mean CFB” value (increased from 50 mg q.d. to 100 mg q.d. at 12 weeks, week 16)?
**A.** 0.37 mmol/L

**Q.** And the “[total cholesterol] Mean CFB” value (increased from 50 mg q.d. to 100 mg q.d. at 12 weeks, week 20)?
**A.** 0.34 mmol/L

**Q.** What about the “[total cholesterol] Mean CFB” value (increased from 50 mg q.d. to 100 mg q.d. at 12 weeks, week 24) of the same molecule?
**A.** 0.25 mmol/L

**Q.** What about the “[Total cholesterol] Median CFB” value [1] of the same molecule?
**A.** 0.25 mmol/L

**Q.** What about the “[total cholesterol] Mean CFB” value [1] of the same molecule?
**A.** 0.08 mmol/L

**Q.** And the “[Total cholesterol] Median CFB” value [2]?
**A.** 0.25 mmol/L

**Q.** And the “[total cholesterol] Mean CFB” value [2]?
**A.** 0.18 mmol/L

**Q.** What about the “[Total cholesterol] Median CFB” value [3] of the same molecule?
**A.** 0.36 mmol/L

**Q.** And the “[total cholesterol] Mean CFB” value [3]?
**A.** 0.06 mmol/L

**Q.** What about the “[total cholesterol] Mean CFB” value (placebo switched to 100 mg q.d. at week 12, week 16) of the same molecule?
**A.** -0.16 mmol/L

**Q.** What about the “[total cholesterol] Mean CFB” value (placebo switched to 100 mg q.d. at week 12, week 20) of the same molecule?
**A.** -0.17 mmol/L

**Q.** And the “[total cholesterol] Mean CFB” value (placebo switched to 100 mg q.d. at week 12, week 24)?
**A.** -0.26 mmol/L

**Q.** And the “[total cholesterol] Mean percentage CFB - 24 weeks results” value (“[total cholesterol] Mean percentage CFB” below) (week 1)?
**A.** 2.56%

**Q.** And the “[total cholesterol] Mean percentage CFB” value (week 2)?
**A.** 3.22%

**Q.** What about the “[total cholesterol] Mean percentage CFB” value (week 4) of the same molecule?
**A.** 4.05%

**Q.** What about the “[total cholesterol] Mean percentage CFB” value (week 8) of the same molecule?
**A.** 4.25%
